From patent publication US12263169B2, “Methods of treating neuroepithelial tumors using selective glucocorticoid receptor modulators” (Corcept Therapeutics, Inc., priority 2017, dated 2025)

Key:
[1] = test system: glioblastoma cell lines U251, GL261, U87, GBM8 and GBM4; experiment: Cell growth inhibition, summary over five glioblastoma cell lines; format: cell-based, human and mouse; conditions: range over five glioblastoma cell lines, 72 hours treatment, Alamar Blue; read-out: half-maximal inhibition concentration (IC50) values, range over the cell lines
Protocol: The effect of GRMs on the growth in culture of human and mouse glioblastoma cells was examined. The GRMs mifepristone and CORT125134 inhibited growth in culture of each of five different glioblastoma cell lines. The highest drug concentration tested was 50 μM. The cell lines used were the Standard Serum Human glioblastoma (GBM) Cell lines: U251, GL261, U87, and the patient-derived neurosphere cell lines GBM8 and GBM4. Cells were plated at cell numbers of 2000 cells/well, in a 96-well format; the experiments were done in triplicate. Cell growth inhibition by the applied drugs was assayed. Cell growth inhibition was quantified by the Alamar Blue method using a commercial assay kit. Cell growth inhibition was determined (“read out”) after 72 hours of treatment. […] Cell Cultures: The human glioblastoma cell lines (obtained from the American Type Culture Collection (ATCC), Manassas VA, USA) tested were U251 and U87 (human), and GL261 (mouse). […] After 3-18 hours fluorescent signal was read at 544ex/590em (SpectraMax i3x plate reader, Molecular Devices, San Jose CA, USA) to determine the number of viable cells. The IC50 values were calculated using commercial software (Prism 5 Software, GraphPad, La Jolla CA, USA). […] Cell viability was measured after 72 hours by Alamar Blue and results reported as triplicate experiment. The following Table presents the IC50 values as determined in these experiments.

meningioma = experiment: Treating a meningioma patient with SGRM, tumor load monitored by enhanced MRI; format: in vivo, human; conditions: 200 mg once a day for eight weeks
Protocol: A patient complains of tinnitus and right-sided hearing loss for 6 months. […] They are treated with CORT125134 at a dose of 200 mg once a day for eight weeks. Their tumor load is monitored using enhanced MRI before, during and after the treatment.
A patient complains of tinnitus and right-sided hearing loss for 6 months. […] They are treated with CORT125281 at a dose of 200 mg once a day for eight weeks. Their tumor load is monitored using enhanced MRI before, during and after the treatment.

GL261 = experiment: Cell growth inhibition (Alamar Blue cell viability assay); format: cell-based; conditions: Mus musculus, GL261 standard GBM line, 72 hours treatment, triplicate
Protocol: (§1) The effect of GRMs on the growth in culture of human and mouse glioblastoma cells was examined. The GRMs mifepristone and CORT125134 inhibited growth in culture of each of five different glioblastoma cell lines. The highest drug concentration tested was 50 μM. The cell lines used were the Standard Serum Human glioblastoma (GBM) Cell lines: U251, GL261, U87, and the patient-derived neurosphere cell lines GBM8 and GBM4. Cells were plated at cell numbers of 2000 cells/well, in a 96-well format; the experiments were done in triplicate. Cell growth inhibition by the applied drugs was assayed. Cell growth inhibition was quantified by the Alamar Blue method using a commercial assay kit. Cell growth inhibition was determined (“read out”) after 72 hours of treatment. […] Cell Cultures: The human glioblastoma cell lines (obtained from the American Type Culture Collection (ATCC), Manassas VA, USA) tested were U251 and U87 (human), and GL261 (mouse). These were grown as an adherent monolayer cultured in DMEM supplemented with 10% fetal bovine serum (FBS) (Seradigm, a subsidiary of VWR, Radnor PA, USA) and 1% glutamine pen-strep (Omega Scientific, Tarzana CA, USA). GBM8 (passage 12) and GBM4 are patient derived glioma stem cell lines obtained and cultured as neurospheres (spheroids) as described by Galli et al., “Isolation and characterization of tumorigenic, stem-like neural precursors from human glioblastoma” Cancer Res 2004, 64 (19), 7011-21 and Lee et al., “Tumor stem cells derived from glioblastomas cultured in bFGF and EGF more closely mirror the phenotype and genotype of primary tumors than do serum-cultured cell lines” Cancer Cell 2006, 9 (5), 391-403. Initial GBM surgical samples were dissociated in stem cell isolation medium containing human recombinant EGF ([…]), human bFGF ([…]) and heparin (2 μg/ml), washed, filtered through a 30 μm mesh and plated onto ultra-low adherence flasks at a concentration of 5×10^5 to 1.5×10^6 viable cells/ml. Sphere cultures were passaged by dissociation, washing and resuspension in neural stem cell culture medium (NeuroCult™ NS-A Proliferation kit #05751, Stemcell Technologies, Vancouver, BC, CA), according to the manufacturer's instructions. Cell Viability Assay: Cells were seeded into 96-well plates at a density of 2000 cells per well. Compounds were added 24 hours after the seeding of cells. All compounds were diluted in 1% FBS/DMEM. The control was treated with media alone. After 3 days incubation (37° C./5% CO2) Alamar Blue (#BUF012B, AbDSerotec, Kidlington, UK) was added according to the manufacturer's protocol, directly to the medium and placed back in the tissue culture incubator (37° C. 5% CO2). After 3-18 hours fluorescent signal was read at 544ex/590em (SpectraMax i3x plate reader, Molecular Devices, San Jose CA, USA) to determine the number of viable cells. The IC50 values were calculated using commercial software (Prism 5 Software, GraphPad, La Jolla CA, USA). After 24 hours post incubation, cells were treated with drugs at various concentrations for 72 hours. Cell viability was measured after 72 hours by Alamar Blue and results reported as triplicate experiment. The following Table presents the IC50 values as determined in these experiments.

U251 = experiment: as above; format: cell-based; conditions: Homo sapiens, U-251, U251 standard GBM line, 72 hours treatment, triplicate
Protocol: as §1

GBM8 = experiment: as above; format: cell-based; conditions: Homo sapiens, GBM8 patient-derived neurosphere line, 72 hours treatment, triplicate
Protocol: as §1

U87 = experiment: as above; format: cell-based; conditions: Homo sapiens, U-87 MG, U87 standard GBM line, 72 hours treatment, triplicate
Protocol: as §1

GBM4 = experiment: as above; format: cell-based; conditions: Homo sapiens, GBM4 patient-derived neurosphere line, 72 hours treatment, triplicate
Protocol: as §1

IC50 [1]	IC50 (U251)	IC50 (U87)	SMILES	reduction of tumor size as compared to baseline at the end of the treatment period (meningioma)	IC50 (GL261)	IC50 (GBM8)	IC50 (GBM4)
5 to 29 µM	12.5 µM	5.42 µM	Cn1cc(S(=O)(=O)N2CCC3=Cc4c(cnn4-c4ccc(F)cc4)C[C@]3(C(=O)c3cc(C(F)(F)F)ccn3)C2)cn1 [CORT125134, (R)-(1-(4-fluorophenyl)-6-((1-methyl-1H-pyrazol-4-yl)sulfonyl)-4,4a,5,6,7,8-hexahydro-1H-pyrazolo[3,4-g]isoquinolin-4a-yl)(4-(trifluoromethyl)pyridin-2-yl)methanone]	more than 50%	5.86 µM	29.1 µM	20.7 µM
			Cn1ncc(S(=O)(=O)N2CC[C@H]3Cc4c(cnn4-c4ccc(F)cc4)C[C@]3(C(=O)c3cc(C(F)(F)F)ccn3)C2)n1 [CORT125281, ((4aR,8aS)-1-(4-fluorophenyl)-6-((2-methyl-2H-1,2,3-triazol-4-yl)sulfonyl)-4,4a,5,6,7,8,8a,9-octahydro-1H-pyrazolo[3,4-g]isoquinolin-4a-yl)(4-(trifluoromethyl)pyridin-2-yl)methanone]	more than 50%			
16 to 24 µM	18.4 µM	18.4 µM	CC#C[C@]1(O)CC[C@H]2[C@@H]3CCC4=CC(=O)CCC4=C3[C@@H](c3ccc(N(C)C)cc3)C[C@@]21C [Mifepristone, 17-β-hydrox-11-β-(4-dimethyl-aminophenyl)17-α-(1-propynyl)estra-4,9-dien-3-one, reference compound]		15.7 µM	24 µM	24.1 µM
